Assay results: PubChem BioAssay AID248 (DTP/NCI, 2004)
Toxic doses and inconclusive results are not listed. No stated cut-off is given here; in the data, active means T/C of 150% or more; inactive means T/C below 125%.

Test system: L1210 leukemia ip in BDF1 mice, survival T/C
Assay: NCI In Vivo Anticancer Drug Screen. Data for tumor model L1210 Leukemia (intraperitoneal) in B6D2F1 (BDF1) mice
Conditions: endpoint: mean survival time, higher = longer survival
Procedure, shortened: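 Mice bearing the transplanted tumor received compound or vehicle. Survival of the treated group was divided by that of the vehicle-treated control group to give the ratio.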

[1] = dose: 100.0 mg/kg/injection, schedule: Q01DX009 (ip), vehicle: Klucel (hydroxypropylcellulose) (HPC)
[2] = dose: 400.0 mg/kg/injection, schedule: Q01DX009 (ip), vehicle: Klucel (hydroxypropylcellulose) (HPC)
[3] = dose: 100.0 mg/kg/injection, schedule: Q01DX009 (ip), vehicle: saline with Tween-80
[4] = dose: 200.0 mg/kg/injection, schedule: Q01DX009 (ip), vehicle: saline with Tween-80
[5] = dose: 50.0 mg/kg/injection, schedule: Q01DX009 (ip), vehicle: Klucel (hydroxypropylcellulose) (HPC)
[6] = dose: 100.0 mg/kg/injection, schedule: Q04DX003 (ip), vehicle: Klucel (hydroxypropylcellulose) (HPC)
[7] = dose: 200.0 mg/kg/injection, schedule: Q01DX009 (ip), vehicle: Klucel (hydroxypropylcellulose) (HPC)

Measured: T/C

O=c1[nH]cc(/C=N\Nc2ccccc2)c(=O)[nH]1
inactive: dose: 50.0 mg/kg/injection, schedule: Q01DX001 (ip), vehicle: saline 97 % of control | dose: 100.0 mg/kg/injection, schedule: Q01DX001 (ip), vehicle: saline 101 % of control | dose: 200.0 mg/kg/injection, schedule: Q01DX001 (ip), vehicle: saline 101 % of control | dose: 400.0 mg/kg/injection, schedule: Q01DX001 (ip), vehicle: saline 101 % of control

CC(C)(C)c1ccc(OCCO)cc1
inactive: dose: 25.0 mg/kg/injection, schedule: Q01DX009 (ip), vehicle: other 102 % of control | dose: 50.0 mg/kg/injection, schedule: Q01DX009 (ip), vehicle: other 96 % of control | dose: 100.0 mg/kg/injection, schedule: Q01DX009 (ip), vehicle: other 95 % of control

O=S(=O)(O)CCN1CCOCC1
inactive: [1] 100 % of control | [2] 100 % of control

CCN(CC)C1=C(Cl)C(=O)c2ccccc2C1=O
inactive: [3] 93 % of control | [4] 93 % of control

NCC(=O)NC(Cc1c[nH]c2ccccc12)C(=O)O (centres undefined)
inactive: dose: 100.0 mg/kg/injection, schedule: Q01DX001 (ip), vehicle: acetone 97 % of control | dose: 200.0 mg/kg/injection, schedule: Q01DX001 (ip), vehicle: acetone 98 % of control | dose: 400.0 mg/kg/injection, schedule: Q01DX001 (ip), vehicle: acetone 92 % of control

S=c1[nH]c2ccc(Cl)cc2s1
inactive: dose: 25.0 mg/kg/injection, schedule: Q01DX009 (ip), vehicle: Klucel (hydroxypropylcellulose) (HPC) 101 % of control | dose: 25.0 mg/kg/injection, schedule: Q04DX003 (ip), vehicle: Klucel (hydroxypropylcellulose) (HPC) 115 % of control | [5] 97 % of control | dose: 50.0 mg/kg/injection, schedule: Q04DX003 (ip), vehicle: Klucel (hydroxypropylcellulose) (HPC) 106 % of control | [1] 97 % of control | [6] 96 % of control

O=C1CCCCC1CO (centres undefined)
inactive: [1] 96 % of control | dose: 100.0 mg/kg/injection, schedule: Q04DX002 (ip), vehicle: Klucel (hydroxypropylcellulose) (HPC) 96 % of control | [7] 100 % of control | dose: 200.0 mg/kg/injection, schedule: Q04DX002 (ip), vehicle: Klucel (hydroxypropylcellulose) (HPC) 100 % of control | [2] 89 % of control | dose: 400.0 mg/kg/injection, schedule: Q04DX002 (ip), vehicle: Klucel (hydroxypropylcellulose) (HPC) 86 % of control

O=C(O)Cc1ccc(Cl)c(Cl)c1
inactive: dose: 50.0 mg/kg/injection, schedule: Q01DX009 (ip), vehicle: saline 94 % of control | dose: 100.0 mg/kg/injection, schedule: Q01DX009 (ip), vehicle: saline 105 % of control | dose: 200.0 mg/kg/injection, schedule: Q01DX009 (ip), vehicle: saline 108 % of control

NS(=O)Oc1ccc(Nc2ncnc3nc[nH]c23)cc1 (centres undefined)
inactive: [3] 97 % of control | dose: 100.0 mg/kg/injection, schedule: Q04DX003 (ip), vehicle: saline with Tween-80 98 % of control | [4] 95 % of control | dose: 200.0 mg/kg/injection, schedule: Q04DX003 (ip), vehicle: saline with Tween-80 102 % of control | dose: 400.0 mg/kg/injection, schedule: Q01DX009 (ip), vehicle: saline with Tween-80 104 % of control | dose: 400.0 mg/kg/injection, schedule: Q04DX003 (ip), vehicle: saline with Tween-80 98 % of control

Cc1ccc2ncccc2c1N (tested in a mixture with another compound)
inactive: dose: 100.0 mg/kg/injection, schedule: Q04DX003 (ip), vehicle: gum acacia 93 % of control | dose: 200.0 mg/kg/injection, schedule: Q04DX003 (ip), vehicle: gum acacia 98 % of control | dose: 400.0 mg/kg/injection, schedule: Q04DX003 (ip), vehicle: gum acacia 94 % of control

Cc1ccc(N2CCN(CC(O)c3ccccc3)CC2)cc1 (centres undefined)
inactive: [5] 95 % of control | [1] 95 % of control | [7] 98 % of control

Nc1nc(=O)n(CCCSc2ccc([N+](=O)[O-])cc2)cc1-c1ccc(Cl)c(Cl)c1
inactive: [6] 90 % of control | dose: 200.0 mg/kg/injection, schedule: Q04DX003 (ip), vehicle: Klucel (hydroxypropylcellulose) (HPC) 90 % of control | dose: 400.0 mg/kg/injection, schedule: Q04DX003 (ip), vehicle: Klucel (hydroxypropylcellulose) (HPC) 88 % of control
